Laboratory results taken from patent US10645922B2, “Methods and compositions for pest bait” (Dow AgroSciences LLC, priority 2015, dated 2020).
“Also recorded” adds a separate entry of the source.

System: termites
Experiment: Two-way choice bioassay, filter paper consumption by termite workers
Assay type: in vivo, Reticulitermes flavipes
Details: FIG. 1A, FIG. 1B; series of experiments and validated tests
Procedure: Two-way choice bioassays are conducted with the granule formulation containing 1% 1-MCP in weight boats. Test materials are placed in weigh boats to prevent physical contact of termite workers with test material. Filter papers associated with 1-MCP are used to qualify consumption. Bioassay arenas are placed inside sealed plastic containers with open moisture sources to maintain high humidity for releasing 1-MCP from the granule formulation. […] The experiment results are also shown in Table 1, where negative control uses granules having 22% alpha-cyclodextrin+78% sodium bentonite.

CC1=CC1 [1-MCP, 1-methylcyclopropene]
Filter paper consumption in presence of 1-MCP (in words): Significant higher consumption; also recorded: significantly increase
